Results as given in US20230139328A1, “DOSAGE FORMS FOR IMPROVING ORGAN TRANSPLANTATION, GRAFT VERSUS HOST DISEASE AND STEM CELLS TRANSPLANTS” (Aphios Corporation, priority 2020, published 2023).
Entries after “also recorded” stand apart in the source; their conditions may differ.

Tests used:
[1] = tested on: PKC-δ siRNA nucleofected HUVEC; assay: LTB4 mediated neutrophil migration across PKC-δ siRNA nucleofected HUVEC; type: cell-based, human; conditions: 100 nM, 1 h; PKC-δ knockdown
Description: Because studies in FIG. 8 could not discriminate between PKC-δ and […] isoforms mediating the effect of Bryostatin-1, we knocked down individual isoforms using siRNA technology. In order to verify that we could knock down particular isoforms of PKC, specifically PKC-8 and PKC-ε isoforms in HUVEC, siRNA which selectively bind to and eliminate human PKC-8 and PKC-ε mRNAs were nucleofected into HUVEC prior to migration studies. […] HUVEC cells treated using these approaches were then subjected to chemotaxis studies with Bryostatin-1 to elucidate the mechanism of Bryostatin-1 mediated inhibition of LTB4 induced PMN migration.
Neutrophil Transendothelial Migration (TEM) Restoration Studies: HUVECs were pretreated with Go-6983 (1, 10, 100 nM), or Go-6976 (1, 10,100 nM) for 30 minutes, then spiked with 100 nM Bryostatin-1 for 1 hour. […] Migration was stopped by removing the inserts and migration was measured using the MPO assay.
Myeloperoxidase Assay: Neutrophil migration was measured using myeloperoxidase (MPO) analysis. […] The supernatant was removed, and MPO activity was measured using TMB/peroxide as chromogen. The reaction was stopped with sulfuric acid and absorbance was read at 450 nm using a microplate reader. […] Data was expressed as “% neutrophil migration”, which allowed cumulative statistical analysis to be done and account for unpreventable batch-to-batch variations. […]

T84 intestinal epithelia = conditions: cited from earlier work
[2] = tested on: neutrophil migration across HUVEC; assay: Neutrophil transendothelial migration (TEM) restoration studies with PKC inhibitors in HUVEC; type: cell-based, human; conditions: 100 nM Bryostatin-1, 100 nM LTB4, 3 h
Description: HUVEC were pretreated with G0-6983, a PKC inhibitor with dose dependent specificities for classical vs. novel PKC isoforms for 30 minutes prior to addition of Bryostatin-1 (100 nM) to block neutrophil migration. […] Neutrophil migration towards 100 nM LTB4 was initiated by adding LTB4 to the lower well.
Neutrophil Transendothelial Migration (TEM) Restoration Studies: HUVECs were pretreated with Go-6983 (1, 10, 100 nM), or Go-6976 (1, 10,100 nM) for 30 minutes, then spiked with 100 nM Bryostatin-1 for 1 hour. HUVECs previously nucleofected with PKC-δ, -ε, or control siRNA were just treated in Bryostatin-1 for 1 hour. HUVECs were washed three times and placed in a new plate containing either 500 IL 100 nM LTB4, or HBSS alone for control. Neutrophils were allowed to migrate for 3 h at 37° C. Migration was stopped by removing the inserts and migration was measured using the MPO assay.
Myeloperoxidase Assay: Neutrophil migration was measured using myeloperoxidase (MPO) analysis. Cell culture inserts were first removed, and plates were spun at 1,500 RPM for 5 min. The supernatant was removed, and MPO activity was measured using TMB/peroxide as chromogen. The reaction was stopped with sulfuric acid and absorbance was read at 450 nm using a microplate reader. All experiments were performed n=6. Data was expressed as “% neutrophil migration”, which allowed cumulative statistical analysis to be done and account for unpreventable batch-to-batch variations.

[3] = cited from earlier work

## CCC/C=C/C=C/C(=O)O[C@H]1/C(=C/C(=O)OC)C[C@H]2C[C@H]([C@@H](C)O)OC(=O)C[C@H](O)C[C@@H]3C[C@H](OC(C)=O)C(C)(C)[C@](O)(C[C@@H]4C/C(=C/C(=O)OC)C[C@H](/C=C/C(C)(C)[C@]1(O)O2)O4)O3 [Bryostatin-1]
[1]
  effect on LTB4 mediated neutrophil migration in PKC-δ siRNA nucleofected HUVEC: restored the normal level of neutrophil trans endothelial migration; also recorded: will not inhibit LTB4 mediated neutrophil migration
T84 intestinal epithelia
  barrier function and TNF-α induced barrier loss: enhances barrier function and inhibits barrier loss induced by TNF-α
[2]
  effect on LTB4 induced neutrophil migration, HUVEC: reversed; also recorded: significantly suppressed LTB4 induced migration
[3]; Phase II trials, combination with other drugs, cancers
  major side effects associated with use: myalgias, nausea, and vomiting
[3]; clinical use
  cardiovascular disturbances or edema: no cardiovascular disturbances or evidence of edema have been observed
[3]; healthy subjects and cancer patients
  adverse effects at dosing ranges higher than 100 ng/ml plasma level: no adverse effects
